ChEMBL document CHEMBL1152855, “Regioselective synthesis of dispiro[1H-indene-2,3'-pyrrolidine-2',3''-[3H]indole]-1,2''(1''H)-diones of potential anti-tumor properties” (2009)

Legend:
NCI-H226 = experiment: Growth inhibition of human NCI-H226 cells at 10 uM after 48 hrs by sulforhodamine B assay; format: functional; settings: NCI-H226, 48 h, values are per cent of control
UO-31 = experiment: Growth inhibition of human UO31 cells at 10 uM after 48 hrs by sulforhodamine B assay; format: functional; settings: UO-31, 48 h, values are per cent of control
SF-295 = experiment: Growth inhibition of human SF295 cells at 10 uM after 48 hrs by sulforhodamine B assay; format: functional; settings: SF-295, 48 h, values are per cent of control
MOLT-4 = experiment: Growth inhibition of human MOLT4 cells at 10 uM after 48 hrs by sulforhodamine B assay; format: functional; settings: MOLT-4, 48 h, values are per cent of control
HOP-62 = experiment: Growth inhibition of human HOP62 cells at 10 uM after 48 hrs by sulforhodamine B assay; format: functional; settings: HOP-62, 48 h, values are per cent of control
M14 = experiment: Growth inhibition of human M14 cells at 10 uM after 48 hrs by sulforhodamine B assay; format: functional; settings: M14, 48 h, values are per cent of control
CCRF-CEM = experiment: Growth inhibition of human CCRF-CEM cells at 10 uM after 48 hrs by sulforhodamine B assay; format: functional; settings: values are per cent of control
Rattus norvegicus [1] = experiment: Antiinflammatory activity against carrageenan-induced paw edema in Wister albino rat assessed as inhibition of edema at 50 mg/kg, ip administered 1 hr prior to carrageenan challenge measured after 4 hrs relative to control; format: functional; settings: route intraperitoneal
HT-29 = experiment: Growth inhibition of human HT-29 cells at 10 uM after 48 hrs by sulforhodamine B assay; format: functional; settings: HT-29, 48 h, values are per cent of control
EKVX = experiment: Growth inhibition of human EKVX cells at 10 uM after 48 hrs by sulforhodamine B assay; format: functional; settings: values are per cent of control
SK-OV-3 = experiment: Growth inhibition of human SKOV3 cells at 10 uM after 48 hrs by sulforhodamine B assay; format: functional; settings: SK-OV-3, 48 h, values are per cent of control
Malme-3M = experiment: Growth inhibition of human MALME-3M cells at 10 uM after 48 hrs by sulforhodamine B assay; format: functional; settings: values are per cent of control
KM12 = experiment: Growth inhibition of human KM12 cells at 10 uM after 48 hrs by sulforhodamine B assay; format: functional; settings: KM12, 48 h, values are per cent of control
Rattus norvegicus [2] = experiment: Antiinflammatory activity against carrageenan-induced paw edema in Wister albino rat assessed as inhibition of edema at 50 mg/kg, ip administered 1 hr prior to carrageenan challenge measured after 3 hrs relative to control; format: functional; settings: route intraperitoneal
T47D = experiment: Growth inhibition of human T47D cells at 10 uM after 48 hrs by sulforhodamine B assay; format: functional; settings: values are per cent of control
NCI-H460 = experiment: Growth inhibition of human NCI-H460 cells at 10 uM after 48 hrs by sulforhodamine B assay; format: functional; settings: NCI-H460, 48 h, values are per cent of control
Rattus norvegicus [3] = experiment: Antiinflammatory activity against carrageenan-induced paw edema in Wister albino rat assessed as inhibition of edema at 50 mg/kg, ip administered 1 hr prior to carrageenan challenge measured after 2 hrs relative to control; format: functional; settings: route intraperitoneal
K562 = experiment: Growth inhibition of human K562 cells at 10 uM after 48 hrs by sulforhodamine B assay; format: functional; settings: K562, 48 h, values are per cent of control
SF-539 = experiment: Growth inhibition of human SF539 cells at 10 uM after 48 hrs by sulforhodamine B assay; format: functional; settings: SF-539, 48 h, values are per cent of control
SN12C = experiment: Growth inhibition of human SN12C cells at 10 uM after 48 hrs by sulforhodamine B assay; format: functional; settings: values are per cent of control
COLO 205 = experiment: Growth inhibition of human COLO205 cells at 10 uM after 48 hrs by sulforhodamine B assay; format: functional; settings: COLO 205, 48 h, values are per cent of control
OVCAR-5 = experiment: Growth inhibition of human OVCAR5 cells at 10 uM after 48 hrs by sulforhodamine B assay; format: functional; settings: OVCAR-5, 48 h, values are per cent of control
HCC 2998 = experiment: Growth inhibition of human HCC2998 cells at 10 uM after 48 hrs by sulforhodamine B assay; format: functional; settings: HCC 2998, 48 h, values are per cent of control
MDA-MB-435 = experiment: Growth inhibition of human MDA-MB-435 cells at 10 uM after 48 hrs by sulforhodamine B assay; format: functional; settings: MDA-MB-435, 48 h, values are per cent of control
U-251 = experiment: Growth inhibition of human U251 cells at 10 uM after 48 hrs by sulforhodamine B assay; format: functional; settings: U-251, 48 h, values are per cent of control
HOP-92 = experiment: Growth inhibition of human HOP92 cells at 10 uM after 48 hrs by sulforhodamine B assay; format: functional; settings: HOP-92, 48 h, read-out: GI
LOX IMVI = experiment: Growth inhibition of human LOXIMVI cells at 10 uM after 48 hrs by sulforhodamine B assay; format: functional; settings: values are per cent of control
SW-620 = experiment: Growth inhibition of human SW620 cells at 10 uM after 48 hrs by sulforhodamine B assay; format: functional; settings: SW-620, 48 h, values are per cent of control
OVCAR-4 = experiment: Growth inhibition of human OVCAR4 cells at 10 uM after 48 hrs by sulforhodamine B assay; format: functional; settings: OVCAR-4, 48 h, values are per cent of control
TK-10 = experiment: Growth inhibition of human TK10 cells at 10 uM after 48 hrs by sulforhodamine B assay; values are per cent of control; settings: TK-10, 48 h
RPMI-8226 = experiment: Growth inhibition of human RPMI8226 cells at 10 uM after 48 hrs by sulforhodamine B assay; format: functional; settings: RPMI-8226, 48 h, read-out: GI
NCI-H322M = experiment: Growth inhibition of human NCI-H322M cells at 10 uM after 48 hrs by sulforhodamine B assay; format: functional; settings: values are per cent of control
786-0 = experiment: Growth inhibition of human 786-0 cells at 10 uM after 48 hrs by sulforhodamine B assay; format: functional; settings: 786-0, 48 h, values are per cent of control
A498 = experiment: Growth inhibition of human A498 cells at 10 uM after 48 hrs by sulforhodamine B assay; format: functional; settings: A498, 48 h, values are per cent of control
UACC-257 = experiment: Growth inhibition of human UACC257 cells at 10 uM after 48 hrs by sulforhodamine B assay; format: functional; settings: UACC-257, 48 h, values are per cent of control
[4] = Growth inhibition of human Hs 578T cells at 10 uM after 48 hrs by sulforhodamine B assay; format: functional; settings: values are per cent of control
Rattus norvegicus [5] = experiment: Antiinflammatory activity against carrageenan-induced paw edema in Wister albino rat assessed as inhibition of edema at 50 mg/kg, ip administered 1 hr prior to carrageenan challenge measured after 1 hr relative to control; format: functional; settings: route intraperitoneal
MDA-MB-231 = experiment: Growth inhibition of human MDA-MB-231 cells at 10 uM after 48 hrs by sulforhodamine B assay; format: functional; settings: MDA-MB-231, 48 h, values are per cent of control

SMILES | growth, % of control at 10 µM (NCI-H226) | growth, % of control at 10 µM (UO-31) | growth, % of control at 10 µM (SF-295) | growth, % of control at 10 µM (MOLT-4) | growth, % of control at 10 µM (HOP-62) | growth, % of control at 10 µM (M14) | growth, % of control at 10 µM (CCRF-CEM) | inhibition in vivo at 50 mg/kg (Rattus norvegicus [1]) | growth, % of control at 10 µM (HT-29) | growth, % of control at 10 µM (EKVX) | growth, % of control at 10 µM (SK-OV-3) | growth, % of control at 10 µM (Malme-3M) | growth, % of control at 10 µM (KM12) | inhibition in vivo at 50 mg/kg (Rattus norvegicus [2]) | growth, % of control at 10 µM (T47D) | growth, % of control at 10 µM (NCI-H460) | inhibition in vivo at 50 mg/kg (Rattus norvegicus [3]) | growth, % of control at 10 µM (K562) | growth, % of control at 10 µM (SF-539) | growth, % of control at 10 µM (SN12C) | further results
[3H]N1C(=O)[C@@]2(c3ccccc31)N(C)C[C@@H](c1cccs1)[C@@]21Cc2ccccc2C1=O | 96.2% | 95.8% | 105% | 67.7% | 110% | 103% | 91.4% | 20% | 99.6% | 97.5% | 96.2% | 93.5% | 94.3% | 32.6% | 96% | 109% | 39.1% | 93.7% | 109% | 99.6% | growth, % of control at 10 µM (COLO 205): 120%; growth, % of control at 10 µM (OVCAR-5): 98.8%; growth, % of control at 10 µM (HCC 2998): 103%; growth, % of control at 10 µM (MDA-MB-435): 115%; growth, % of control at 10 µM (U-251): 100%; inhibition of growth at 10 µM (HOP-92): 72.9%; growth, % of control at 10 µM (LOX IMVI): 80%; growth, % of control at 10 µM (SW-620): 89.5%; growth, % of control at 10 µM (OVCAR-4): 93%; growth, % of control at 10 µM (TK-10): 144%; inhibition of growth at 10 µM (RPMI-8226): 89.1%; growth, % of control at 10 µM (NCI-H322M): 98.9%; growth, % of control at 10 µM (786-0): 111%; growth, % of control at 10 µM (A498): 102%; growth, % of control at 10 µM (UACC-257): 65%; growth, % of control at 10 µM [4]: 69.8%; inhibition in vivo at 50 mg/kg (Rattus norvegicus [5]): 49.9%; growth, % of control at 10 µM (MDA-MB-231): 78.3%
[3H]C([3H])([3H])N1C(=O)[C@@]2(c3ccccc31)N(C)C[C@@H](c1cccs1)[C@@]21Cc2ccccc2C1=O | 85.7% | 93.5% | 60.4% | 72.2% | 99.9% | 104% | 90.5% | 12.9% | 97.5% | 107% | 103% | 123% | 107% | 9.1% | 101% | 107% | 10.8% | 72.5% | 112% | 105% | growth, % of control at 10 µM (COLO 205): 107%; growth, % of control at 10 µM (OVCAR-5): 102%; growth, % of control at 10 µM (HCC 2998): 104%; growth, % of control at 10 µM (MDA-MB-435): 111%; growth, % of control at 10 µM (U-251): 102%; inhibition of growth at 10 µM (HOP-92): 69.2%; growth, % of control at 10 µM (LOX IMVI): 85.3%; growth, % of control at 10 µM (SW-620): 89.1%; growth, % of control at 10 µM (OVCAR-4): 100%; growth, % of control at 10 µM (TK-10): 149%; inhibition of growth at 10 µM (RPMI-8226): 87.9%; growth, % of control at 10 µM (NCI-H322M): 89.3%; growth, % of control at 10 µM (786-0): 106%; growth, % of control at 10 µM (A498): 103%; growth, % of control at 10 µM (UACC-257): 52.6%; growth, % of control at 10 µM [4]: 21.1%; inhibition in vivo at 50 mg/kg (Rattus norvegicus [5]): 33%; growth, % of control at 10 µM (MDA-MB-231): 84.3%
